# Reference: US10201583B2, “Antioxidant dietary supplement and related method” (priority 2012, dated 2019)
# Assays:
# [1] = test system: HMOX-1 in bovine aortic endothelial cells; conditions: Motterlini et al. 2000; cited from earlier work
# [2] = test system: Antioxidant Response Element (ARE); assay: ARE luciferase reporter assay in stably transfected HepG2 cells; format: cell-based, human; conditions: individual ingredient at the noted concentration, 48 h, control sulforaphane 10 μM
# Protocol: The formulation including the blend of turmeric, quercetin and rosemary (TQR Blend, also referred to herein as Blend A) was tested to evaluate the ARE of the blend. In particular, the three individual ingredients, turmeric, quercetin and rosemary were tested by themselves and in combination as a blend. In the testing, a conventional assay for determining ARE was utilized. Generally, the assay included the human hepatocyte cell line HepG2 obtained from ATCC of Manassas, Va. that was stably transfected with a vector. The vector contained four repeats of the ARE DNA sequence ([…] ID NO: 1)) upstream of a minimal promoter using the firefly luciferase gene as a reporter. These cells were then treated with the individual ingredients turmeric, quercetin and rosemary, and the TQR Blend in varying concentrations for 48 hours in this and the other noted examples below. The human hepatocytes were lysed, the luciferase substrate, purchased from Biotium of Hayward, Calif., added, and the relative luminescence values were obtained for all samples. The results are shown as a % Response vs. Control. The control substance was sulforaphane at 10 μM.
Structure (SMILES),induction of HMOX-1 in endothelial cells [1],% Response vs. Control in ARE assay ([2]; TQR Blend 50 μg/ml at 1:3:5),% Response vs. Control in ARE assay ([2]; TQR Blend 60 μg/ml at 1:3:5),% Response vs. Control in ARE assay ([2]; TQR Blend 70 μg/ml at 1:3:5),% Response vs. Control in ARE assay ([2]; TQR Blend 80 μg/ml at 1:3:5)
COc1cc(/C=C/C(=O)CC(=O)/C=C/c2ccc(O)c(OC)c2)ccc1O [curcumin],potent inducer of HMOX-1,–,–,–,–
O=c1c(O)c(-c2ccc(O)c(O)c2)oc2cc(O)cc(O)c12 [quercetin],–,about 50%,about 75%,about 80%,about 90%
